These results are taken from US10308643B2, “Heterocyclic compound” (Takeda Pharmaceutical Company Limited, priority 2015, dated 2019).

What all share (type): biochemical
One assay addresses T1, HDAC6 enzyme (Homo sapiens, UniProt Q9UBN7).
T1 construct: transducing full length HDAC1 and HDAC6 genes into Sf-9 insect cells; GST; purchased SignalChem; host or cells: Sf-9 insect cells
T1 sequence (Q9UBN7 1-1215): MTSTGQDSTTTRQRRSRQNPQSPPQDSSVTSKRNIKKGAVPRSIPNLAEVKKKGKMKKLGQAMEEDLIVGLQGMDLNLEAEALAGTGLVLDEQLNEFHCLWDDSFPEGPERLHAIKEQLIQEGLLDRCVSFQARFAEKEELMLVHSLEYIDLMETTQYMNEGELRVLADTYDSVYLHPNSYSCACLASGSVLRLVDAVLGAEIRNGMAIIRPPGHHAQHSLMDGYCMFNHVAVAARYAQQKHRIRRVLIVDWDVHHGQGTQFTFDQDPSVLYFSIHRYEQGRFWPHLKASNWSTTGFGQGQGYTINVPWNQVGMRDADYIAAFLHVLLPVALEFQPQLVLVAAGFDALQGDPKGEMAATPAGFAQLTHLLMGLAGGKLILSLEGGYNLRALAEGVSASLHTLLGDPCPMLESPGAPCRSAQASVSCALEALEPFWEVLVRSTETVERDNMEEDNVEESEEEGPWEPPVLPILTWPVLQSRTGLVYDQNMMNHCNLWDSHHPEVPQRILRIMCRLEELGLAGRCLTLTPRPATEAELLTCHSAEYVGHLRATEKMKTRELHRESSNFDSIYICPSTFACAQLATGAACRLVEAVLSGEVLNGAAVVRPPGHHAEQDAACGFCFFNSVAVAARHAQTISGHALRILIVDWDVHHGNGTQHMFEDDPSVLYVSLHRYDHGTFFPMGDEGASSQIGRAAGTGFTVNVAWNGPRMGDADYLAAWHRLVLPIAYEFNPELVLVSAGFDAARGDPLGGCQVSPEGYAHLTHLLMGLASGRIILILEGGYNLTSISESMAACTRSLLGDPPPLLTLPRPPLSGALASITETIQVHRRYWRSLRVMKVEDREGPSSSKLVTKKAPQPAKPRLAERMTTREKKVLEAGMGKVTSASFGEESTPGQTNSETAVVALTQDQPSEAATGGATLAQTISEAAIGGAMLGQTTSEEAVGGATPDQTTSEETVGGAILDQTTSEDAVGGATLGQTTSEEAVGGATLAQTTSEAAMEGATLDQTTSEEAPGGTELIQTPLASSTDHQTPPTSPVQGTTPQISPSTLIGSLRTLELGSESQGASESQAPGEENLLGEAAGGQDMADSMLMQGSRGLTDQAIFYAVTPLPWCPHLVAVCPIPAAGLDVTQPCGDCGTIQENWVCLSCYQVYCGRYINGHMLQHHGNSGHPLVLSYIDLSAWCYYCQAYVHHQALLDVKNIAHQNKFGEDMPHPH
Kind of assay: HDAC1/6 Enzyme Inhibitory Assay (HDAC-Glo I/II Assay kit), HDAC6. The following applies: 1 μM test compound, wells without enzyme = 100% inhibition; for inhibition at 1 µM: read-out: HDAC6 inhibitory rate (%) (1 μM). The method, boiled down:
(§1)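 Luminescent HDAC-Glo I/II read-out was taken 20 min after adding substrate-developer, at room temperature. Before this, compound and enzyme were held together for 60 min in 24 mM Tris-HCl pH 7.5 with 0.6 mM glutathione and 0.01% Tween-20. The enzyme was full-length HDAC1 or HDAC6 from Sf-9 cells, GST-purified. Wells without enzyme defined 100% inhibition.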

Another assay has as its target T2, HDAC9 enzyme (Homo sapiens, UniProt Q9UKV0).
T2 construct: transducing full length HDAC9 gene into Sf-9 insect cells; made in house; host or cells: Sf-9 insect cells
Kind of assay: HDAC9 Enzyme Inhibitory Assay (HDAC-Glo class IIa). Particulars: 1 μM test compound, wells without enzyme = 100% inhibition; for inhibition at 1 µM: read-out: HDAC9 inhibitory rate (%) (1 μM). The method, boiled down: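 Full-length human HDAC9 from Sf-9 cells, Ni-NTA purified, preincubated with compound for 60 min at room temperature in Tris-HCl pH 7.5 buffer (MgCl2, KCl, NaCl, glutathione, Tween-20). HDAC-Glo class IIa substrate-developer added; luminescence read after 20 min, with no-enzyme wells defining 100% inhibition.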

For the next assay, the target named is T3, HDAC1 enzyme (Homo sapiens, UniProt Q13547).
T3 construct: transducing full length HDAC1 and HDAC6 genes into Sf-9 insect cells; GST; purchased SignalChem; host or cells: Sf-9 insect cells
T3 sequence (Q13547 whole entry): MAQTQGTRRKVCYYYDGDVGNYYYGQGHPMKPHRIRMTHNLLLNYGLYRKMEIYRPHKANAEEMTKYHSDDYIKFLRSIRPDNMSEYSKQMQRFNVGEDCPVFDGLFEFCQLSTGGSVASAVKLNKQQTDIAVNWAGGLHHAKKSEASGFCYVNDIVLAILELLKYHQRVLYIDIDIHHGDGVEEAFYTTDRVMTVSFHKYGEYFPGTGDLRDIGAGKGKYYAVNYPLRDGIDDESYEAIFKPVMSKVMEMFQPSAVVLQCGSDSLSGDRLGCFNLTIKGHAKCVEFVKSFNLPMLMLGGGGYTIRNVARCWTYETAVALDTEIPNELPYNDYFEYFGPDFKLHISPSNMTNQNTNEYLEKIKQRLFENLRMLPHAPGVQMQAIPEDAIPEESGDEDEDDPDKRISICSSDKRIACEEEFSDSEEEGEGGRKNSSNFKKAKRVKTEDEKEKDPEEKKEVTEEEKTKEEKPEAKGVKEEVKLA
Kind of assay: HDAC1/6 Enzyme Inhibitory Assay (HDAC-Glo I/II Assay kit), HDAC1. The following applies: 1 μM test compound, wells without enzyme = 100% inhibition; for inhibition at 1 µM: read-out: HDAC1 inhibitory rate (%) (1 μM). Put shortly: as §1

T2 sequence (Q9UKV0 whole entry, species assumed): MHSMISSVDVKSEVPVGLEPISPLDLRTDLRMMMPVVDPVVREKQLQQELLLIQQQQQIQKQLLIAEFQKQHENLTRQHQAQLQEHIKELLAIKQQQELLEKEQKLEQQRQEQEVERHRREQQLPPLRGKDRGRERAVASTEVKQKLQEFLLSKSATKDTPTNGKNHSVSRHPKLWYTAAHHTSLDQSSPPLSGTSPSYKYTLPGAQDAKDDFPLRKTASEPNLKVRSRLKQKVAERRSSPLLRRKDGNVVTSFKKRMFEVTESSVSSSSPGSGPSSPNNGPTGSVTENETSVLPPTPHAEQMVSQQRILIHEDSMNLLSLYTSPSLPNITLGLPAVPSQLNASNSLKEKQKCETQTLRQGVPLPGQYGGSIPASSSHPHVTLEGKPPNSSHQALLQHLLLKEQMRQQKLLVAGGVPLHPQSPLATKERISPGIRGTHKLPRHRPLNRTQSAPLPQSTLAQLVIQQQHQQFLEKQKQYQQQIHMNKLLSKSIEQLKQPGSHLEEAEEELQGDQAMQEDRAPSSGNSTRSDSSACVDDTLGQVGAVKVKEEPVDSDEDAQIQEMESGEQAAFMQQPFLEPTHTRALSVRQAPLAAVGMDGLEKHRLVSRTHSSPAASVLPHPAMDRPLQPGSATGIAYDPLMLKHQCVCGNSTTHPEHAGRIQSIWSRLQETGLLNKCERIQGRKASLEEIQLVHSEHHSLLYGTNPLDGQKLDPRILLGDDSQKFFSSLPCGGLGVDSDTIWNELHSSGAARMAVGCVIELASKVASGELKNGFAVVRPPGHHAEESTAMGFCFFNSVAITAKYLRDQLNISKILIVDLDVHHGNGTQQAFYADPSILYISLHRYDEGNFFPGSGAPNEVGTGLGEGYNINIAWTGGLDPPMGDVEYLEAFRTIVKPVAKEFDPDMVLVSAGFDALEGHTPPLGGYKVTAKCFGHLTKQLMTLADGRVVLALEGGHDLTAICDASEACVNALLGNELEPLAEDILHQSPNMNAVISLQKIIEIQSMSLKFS

In the case of `O=C(N[C@@H]1CCCC[C@H]1N1Cc2ccc(-c3noc(C(F)(F)F)n3)cc2C1=O)N1CC2CCC(C1)O2` [Example 146, N-((1R,2R)-2-(1-oxo-6-(5-(trifluoromethyl)-1,2,4-oxadiazol-3-yl)-1,3-dihydro-2H-isoindol-2-yl)cyclohexyl)-8-oxa-3-azabicyclo[3.2.1]octane-3-carboxamide], the figures for the inhibition at 1 µM on HDAC6 enzyme, at HDAC9 enzyme and on HDAC1 enzyme were 99%, 23% and 2%, respectively.
`O=C(N[C@@H]1CCCC[C@H]1N1Cc2ccc(-c3noc(C(F)(F)F)n3)cc2C1=O)[C@@H]1CC1(F)F` [Example 147, (1S)-2,2-difluoro-N-((1R,2R)-2-(1-oxo-6-(5-(trifluoromethyl) -1,2,4-oxadiazol-3-yl)-1,3-dihydro-2H-isoindol-2-yl)cyclohexyl)cyclopropanecarboxamide]: the inhibition at 1 µM was determined as 99% on HDAC6 enzyme, 51% on HDAC9 enzyme and 6% on HDAC1 enzyme.
Turning to `O=C(N[C@@H]1CCCC[C@H]1N1Cc2ccc(-c3noc(C(F)(F)F)n3)cc2C1=O)[C@H]1CC1(F)F` [Example 148, (1R)-2,2-difluoro-N-((1R,2R)-2-(1-oxo-6-(5-(trifluoromethyl)-1,2,4-oxadiazol-3-yl)-1,3-dihydro-2H-isoindol-2-yl)cyclohexyl) cyclopropanecarboxamide], the inhibition at 1 µM on HDAC6 enzyme was found to be 100%; on HDAC9 enzyme, 82%; on HDAC1 enzyme it was 8%.
For `O=C(N[C@@H]1COCC[C@H]1N1Cc2ccc(-c3noc(C(F)(F)F)n3)cc2C1=O)[C@@H]1CC1(F)F` [Example 149, (1S)-2,2-difluoro-N-((3S,4R)-4-(1-oxo-6-(5-(trifluoromethyl)-1,2,4-oxadiazol-3-yl)-1,3-dihydro-2H-isoindol-2-yl)tetrahydro-2H-pyran-3-yl)cyclopropanecarboxamide], the results for the inhibition at 1 µM on HDAC6 enzyme, at HDAC9 enzyme and on HDAC1 enzyme were 100%, 60% and 12%, respectively.
On the same counts, the results for `O=C(N[C@@H]1COCC[C@H]1N1Cc2ccc(-c3noc(C(F)(F)F)n3)cc2C1=O)[C@H]1CC1(F)F` [Example 150, (1R)-2,2-difluoro-N-((3S,4R)-4-(1-oxo-6-(5-(trifluoromethyl)-1,2,4-oxadiazol-3-yl)-1,3-dihydro-2H-isoindol-2-yl)tetrahydro-2H-pyran-3-yl)cyclopropanecarboxamide] are 100%, 85% and 13%.
The corresponding values for `CC1(C(=O)N[C@@H]2CCC[C@H]2N2Cc3ccc(-c4noc(C(F)(F)F)n4)cc3C2=O)COC1` [Example 151, 3-methyl-N-((1R,2R)-2-(1-oxo-6-(5-(trifluoromethyl)-1,2,4-oxadiazol-3-yl)-1,3-dihydro-2H-isoindol-2-yl)cyclopentyl)oxetane-3-carboxamide] are 35%, 42% and 16%.
For `CC1(C(=O)N[C@H]2CCC[C@@H]2N2Cc3ccc(-c4noc(C(F)(F)F)n4)cc3C2=O)COC1` [Example 152, 3-methyl-N-((1S,2S)-2-(1-oxo-6-(5-(trifluoromethyl)-1,2,4-oxadiazol-3-yl)-1,3-dihydro-2H-isoindol-2-yl)cyclopentyl)oxetane-3-carboxamide], the inhibition at 1 µM at HDAC6 enzyme came out at 31%; at HDAC9 enzyme, 38%; on HDAC1 enzyme, 13%.
Take `O=C1c2cc(-c3noc(C(F)(F)F)n3)ccc2CN1[C@@H]1CCCC[C@H]1NC(=O)C1(CO)CC1` [Example 153, 1-(hydroxymethyl)-N-((1R,2R)-2-(1-oxo-6-(5-(trifluoromethyl)-1,2,4-oxadiazol-3-yl)-1,3-dihydro-2H-isoindol-2-yl)cyclohexyl) cyclopropanecarboxamide]: the figures for the inhibition at 1 µM at HDAC6 enzyme, on HDAC9 enzyme and on HDAC1 enzyme were 100%, 52% and 6%, respectively.
Consider `O=C(NC1CC1)N[C@@H]1CCCC[C@H]1N1Cc2ccc(-c3noc(C(F)(F)F)n3)cc2C1=O` [Example 154, 1-cyclopropyl-3-((1R,2R)-2-(1-oxo-6-(5-(trifluoromethyl)-1,2,4-oxadiazol-3-yl)-1,3-dihydro-2H-isoindol-2-yl)cyclohexyl)urea], for which the inhibition at 1 µM at HDAC6 enzyme was determined as 100%; at HDAC9 enzyme, 54%; at HDAC1 enzyme, 11%.
`CN(C(=O)N[C@@H]1CCCC[C@H]1N1Cc2ccc(-c3noc(C(F)(F)F)n3)cc2C1=O)C1CC1` [Example 155, 1-cyclopropyl-1-methyl-3-((1R,2R)-2-(1-oxo-6-(5-(trifluoromethyl)-1,2,4-oxadiazol-3-yl)-1,3-dihydro-2H-isoindol-2-yl)cyclohexyl)urea]: the inhibition at 1 µM at HDAC6 enzyme is 100%; on HDAC9 enzyme, 54%; on HDAC1 enzyme it was 14%.
On to `O=C(N[C@@H]1CCCC[C@H]1N1Cc2ccc(-c3noc(C(F)(F)F)n3)cc2C1=O)N1CC2CC1CO2` (stereo partly drawn) [Example 156, N-((1R,2R)-2-(1-oxo-6-(5-(trifluoromethyl)-1,2,4-oxadiazol-3-yl)-1,3-dihydro-2H-isoindol-2-yl)cyclohexyl)-2-oxa-5-azabicyclo[2.2.1]heptane-5-carboxamide], for which the values for the inhibition at 1 µM on HDAC6 enzyme and on HDAC9 enzyme were 96% and 8%, respectively. Further, the “HDAC1 inhibitory rate (%) (1 μM)” value at HDAC1 enzyme is given as −1%.
`O=C(N[C@@H]1CCCC[C@H]1N1Cc2ccc(-c3noc(C(F)(F)F)n3)cc2C1=O)N1CC2CC1CO2` (stereo partly drawn) [Example 157, N-((1R,2R)-2-(1-oxo-6-(5-(trifluoromethyl)-1,2,4-oxadiazol-3-yl)-1,3-dihydro-2H-isoindol-2-yl)cyclohexyl)-2-oxa-5-azabicyclo[2.2.1]heptane-5-carboxamide]: the “HDAC6 inhibitory rate (%) (1 μM)” value at HDAC6 enzyme came to 96%. Moreover, on HDAC9 enzyme (1 µM), the “HDAC9 inhibitory rate (%) (1 μM)” value is given as 15%. For the same compound, the “HDAC1 inhibitory rate (%) (1 μM)” value on HDAC1 enzyme is −2%.
For the compound `O=C(N[C@@H]1CCCC[C@H]1N1Cc2ccc(-c3noc(C(F)(F)F)n3)cc2C1=O)N1CCCC1` [Example 158, N-((1R,2R)-2-(1-oxo-6-(5-(trifluoromethyl)-1,2,4-oxadiazol-3-yl)-1,3-dihydro-2H-isoindol-2-yl)cyclohexyl)pyrrolidine-1-carboxamide], the inhibition at 1 µM at HDAC6 enzyme was found to be 99%; at HDAC9 enzyme, 34%; on HDAC1 enzyme, 4%.
Turning to `O=C(N[C@@H]1CCCC[C@H]1N1Cc2ccc(-c3noc(C(F)(F)F)n3)cc2C1=O)N1CCC1` [Example 159, N-((1R,2R)-2-(1-oxo-6-(5-(trifluoromethyl)-1,2,4-oxadiazol-3-yl)-1,3-dihydro-2H-isoindol-2-yl)cyclohexyl)azetidine-1-carboxamide], the inhibition at 1 µM on HDAC6 enzyme amounted to 98%; at HDAC9 enzyme it was 39%; at HDAC1 enzyme it was 5%.
The corresponding values for `N#CC12CC(C(=O)N[C@@H]3CCCC[C@H]3N3Cc4ccc(-c5noc(C(F)(F)F)n5)cc4C3=O)(C1)C2` [Example 160, 3-cyano-N-((1R,2R)-2-(1-oxo-6-(5-(trifluoromethyl)-1,2,4-oxadiazol-3-yl)-1,3-dihydro-2H-isoindol-2-yl)cyclohexyl)bicyclo[1.1.1]pentane-1-carboxamide] are 99%, 38% and 11%.
